Drawing on patent US8088920B2, “3-trifluoromethyl-pyrazine-2-carboxylic acid amide derivatives as HDL-cholesterol raising agents” (Hoffmann-La Roche Inc., priority 2008, dated 2012), this text covers EC50 for three compounds.

The test system of this test is THP-1 cells. Nature of the test: Cholesterol efflux assay. In kind it is cell-based. The following applies: Homo sapiens; THP-1 cells differentiated to macrophages, [3H]cholesterol loaded, efflux induced by 10 μg/ml Apolipoprotein AI, 6 hrs; percent stimulation over DMSO. On the procedure: The ability of compounds of the invention to stimulate cholesterol efflux is determined in replicate cultures of THP-1 cells in 96-well microplates. Cells are plated at an initial density of 150,000 cells/well and differentiated to macrophages with the addition of PMA (100 ng/ml) for 72 hrs in 10% fetal bovine serum, 3 μl/L of b-mercaptoethanol, RPMI-1640 medium. Cells are washed once with RPMI-1640 and loaded with RPMI-1640 medium containing 2% FCS, 50 μg/ml acetylated LDL, and 10 μCi/ml [^3H]cholesterol for 48 hours at 37° C. After loading the cells are washed once with RPMI-1640 and incubated with the compound of interest from DMSO solutions for an additional 24 hrs in RPMI-1640 medium containing 1 mg/ml fatty acid free-bovine serum albumin (BSA). Upon incubation cells are washed once, and cholesterol efflux is induced by the addition of 10 μg/ml Apolipoprotein AI in RPMI-1640 containing 1 mg/ml BSA and in the presence of the compound for an additional 6 hrs. Following incubation radioactivity is determined in the supernatants and cholesterol efflux is expressed as the percent stimulation over replicate cultures treated only with DMSO. Sigmoidal curves were fitted using the XLfit3 program (ID Business Solutions Ltd. UK) and EC50 values were determined.
The EC50 is the concentration that produces a half-maximal response. `O=C(N[C@@H]1CCCC[C@H]1O)c1nc(-c2ccc(Cl)cc2)c(OCC2CC2)nc1C(F)(F)F` [Example 1, 6-(4-chloro-phenyl)-5-cyclopropylmethoxy-3-trifluoromethyl-pyrazine-2-carboxylic acid ((1R,2R)-2-hydroxy-cyclohexyl)-amide]: the half-maximal effective concentration (EC50) was determined as 0.61 µM.
In the case of `CC(O)(CNC(=O)c1nc(-c2ccc(Cl)cc2)c(OCC(F)(F)F)nc1C(F)(F)F)C1CC1` (stereo not drawn) [Example 2, 6-(4-chloro-phenyl)-5-(2,2,2-trifluoro-ethoxy)-3-trifluoromethyl-pyrazine-2-carboxylic acid (2-cyclopropyl-2-hydroxy-propyl)-amide], the EC50 amounted to 0.57 µM.
For the compound `CC(O)(CNC(=O)c1nc(-c2ccc(Cl)cc2)c(OCC2CC2)nc1C(F)(F)F)C1CC1` (stereo not drawn) [Example 3, 6-(4-chloro-phenyl)-5-cyclopropylmethoxy-3-trifluoromethyl-pyrazine-2-carboxylic acid (2-cyclopropyl-2-hydroxy-propyl)-amide], the 50% effective concentration (EC50) came out at 0.72 µM.
